The record followed here is patent US20060069095A1, “Azole derivatives” (priority 2004, published 2006).

As usually defined, the IC50 is the concentration needed to halve the response being measured.

The test system of assay [1] is HEK293 cells. Nature of the assay: CellTiter-Glo Luminescent Cell Viability Assay in HEK293 cells. As to conditions: Homo sapiens, 168 h, 7 days incubation, 3 μM to 0.00015 μM. Type of assay: cell-based. The source says: CellTiter-Glo™ Assay in HEK293 Cells
The CellTiter-Glo™ Luminescent Cell Viability Assay (Promega) is a homogeneous method of determining the number of viable cells in culture based on quantitation of the ATP present, which signals the presence of metabolically active cells.
HEK293 cells (human embryonic kidney cell line transformed by Adenovirus 5 fragments, ATCC-No. CRL 1573) were cultivated in Dulbecco's Modified Eagle Medium (DMEM) with Glutamax™ (Invitrogen, 31966-021), 5% Fetal Calf Serum (FCS, Sigma Cat-No. F4135 (FBS)), 100 Units/ml penicillin/100 μg/ml streptomycin (=Pen/Strep from Invitrogen Cat. No. 15140)., For the assay the cells were seeded in 384 well plates, 5000 cells per well, in the same medium. The next day the test compounds were added in various concentrations ranging from 3 μM to 0.00015 μM (10 concentrations, 1:3 diluted). After 7 days the CellTiter-Glo™ assay was done according to the instructions of the manufacturer (CellTiter-Glo™ Luminescent Cell Viability Assay, from Promega). In brief: the cell-plate was equilibrated to room temperature for approximately 30 minutes and than the CellTiter-Glo™ reagent was added. The contents were carefully mixed for 15 minutes to induce cell lysis. After 45 minutes the luminescent signal was measured in Victor 2, (scanning multiwell spectrophotometer, Wallac).
Medium: Dulbecco's Modified Eagle Medium (DMEM) with Glutamax™ (Invitrogen, 31966-021), 5% Fetal Calf Serum (FCS, Sigma Cat-No. F4135 (FBS)), Pen/Strep (Invitrogen Cat. No. 15140).
Incubate 24 h at 37° C., 5% CO2
2nd Day: Induction (Substance Testing):
In general the dilution steeps are 1:3 • a) Add 8 μl of 10 mM stock solution of compound to 72 μl DMSO • b) dilute 9×1:3 (always 30 μl to 60 μl DMSO) in this DMSO dilution row (results in 10 wells with concentrations from 1000 μM to 0.06 μM) • c) dilute each concentration 1:4.8 (10 μl compound dilution to 38 μl medium) • d) dilute each concentration 1:10 (10 μl compound dilution to 90 μl medium) • e) add 10 μl of every concentration to 60 μl medium in the cell plate • resulting in final concentration of DMSO: 0.3% in every well • and resulting in final concentration of compounds from 3 μM to 0.00015 μM • Incubate 168 h (7 days) at 37° C., 5% CO2
Analysis: • Add 30 μl CellTiter-Glo™ Reagent/well, • shake 15 minutes at room temperature • incubate further 45 minutes at room temperature without shaking.
Measurement: • Victor 2 scanning multiwell spectrophotometer (Wallac), Luminescence mode • Determine IC50 with XL-fit (XLfit software (ID Business Solution Ltd., Guilford, Surrey, UK)).
In general terms: Cellular ATP, detected with luciferase, serves as a proxy for viable cell number.

The test system of assay [2] is A549 cells. The experiment in a line: MTT assay in A549 cells. The following applies: 5 days incubation, 3 μM to 0.15 nM. Type of assay: cell-based, human. How it is done: To further show the activity of the compounds according to this invention, their effects on a […] was evaluated using a standard MTT-assay. MTT (3-(4,5-dimethylthiazol-2-yl)-2,5-diphenyl tetrazolium bromide) is widely used for the quantitative determination of cytotoxic effects or in vitro chemosensitivity of tumor cells. The assay is based on the cleavage of the yellow tetrazolium salt (MTT) to purple formazan crystals by metabolic active cells. For details, see Rubinstein, L. V., et al., J. Natl. Cancer Inst. 82 (1990) 1113-1118.
A549 cells (human lung carcinoma cell line ATTC-No. CCL-185) were cultivated in RPMI (Roswell Park Memorial Institute) 1640 medium with GlutaMAX™ I (Invitrogen, Cat-No. 61870-010), 2,5% Fetal Calf Serum (FCS, Sigma Cat-No. F4135 (FBS)); 100 Units/ml penicillin/100 μg/ml streptomycin (=Pen/Strep from Invitrogen Cat. No. 15140). For the assay the cells were seeded in 384 well plates, 900 cells per well, in the same medium. The next day compounds (dissolved 10 mM in dimethylsulfoxide (DMSO)) were added in various concentrations ranging from 3 μM to 0.15 nM (10 concentrations, 1:3 diluted). After 5 days MTT assay was done mainly according to the instructions of the manufacturer (Cell proliferation kit I, MTT, from Roche Molecular Biochemicals). In brief: MTT labeling reagent (3-(4,5-dimethylthiazol-2-yl)-2,5-diphenyltetrazolium bromide (MTT)) was added to a final concentration of 0.5 mg/ml, added and incubated for 4 hrs at 37° C., 5% CO2. During this incubation time purple formazan crystals are formed. After addition of the solubilization solution (20% Sodium Dodecyl Sulfate (SDS) in 0.02 M HCl) the plates were incubated overnight at 37° C., 5% CO2. After careful mixing plates were measured in Victor 2 scanning multiwell spectrophotometer (Wallac) at 550 nm.
A decrease in number of living cells results in a decrease in the total metabolic activity in the sample. The decrease directly correlates to the amount of purple color resulting from the solubilization of the purple formazan crystals.
• A549: 900 cells in 60 μl per well of 384 well plate (Greiner) • Medium: RPMI 1640, 2.5% FCS, glutamine, Pen/Strep. • Incubate 1 day at 37° C.
Induction: • Dilution of compound in DMSO: 3 μl 10 mM+27 μl DMSO, dilute 1:3 • Add 2 μl of compound dilution row to 95 μl of medium • Add 10 μl of compound dilution to 60 μl medium in test plate resulting in 0.3% DMSO per well • Incubate 120 h (5 days) at 37° C., 5% CO2
Analysis: • Add 7 μl MTT (5 mg/7 ml/well), incubate 4 h at 37° C. • Add 30 μl lysis buffer (20% SDS, 0.04 N HCl) per well • Incubate overnight at 37° C.
Measurement: • Victor 2 scanning multiwell spectrophotometer (Wallac) at 550 nm
Determination of IC50 was done using XL-fit (XLfit software (ID Business Solution Ltd., Guilford, Surrey, UK)).

Assay [3] has as its system A549-Cell-Xenograft. Nature of the assay: In vivo assay on tumor inhibition (A549 xenograft). Further details: species or system mice. As to conditions: daily dosage of 80 mg/kg, oral, after 23 days of treatment (44 days of experiment), median tumor volume. On the procedure: In vivo Assay on Tumor Inhibition:
To generate primary tumors, Non-Small-Cell Lung Cancer (NSCLC) (e.g. Calu-3 (ATTC HTB-55) or A549 (ATTC CCL-185)) cells (4-5.0×10^6 in a volume of 100 μl) are injected subcutaneously into the left flank of female SCID beige (Severe Combined Immunodeficient/beige mice available from Charles River, Sulzfeld, Germany) or BALB/c nude (BALB/c Nude Spontaneous Mutant Mice (homozygotes) available from Taconic Europe, Ry, Denmark) mice. The cells are thawed and expanded in vitro before use in the experiment. Mice are assigned to the treatment groups 14-21 days after cell injection. […] The subcutaneous primary tumors are measured twice weekly, starting prior to randomisation, in two dimensions (length and width) using an electronic caliper. The volume of the primary tumor is calculated using the formula: V[mm^3]=(length [mm]×width [mm]×width [mm])/2. In addition, the body weight of all animals is recorded at least twice weekly. […]
In one example of the above procedure, treatment was started on or about the 20th-21st day of the experiment (after cell injection) and the treatment was carried out for 23 days (about 44 days of experiment). In this example, primary tumor volume was calculated according to NCI protocol (TW=½ ab^2, where a and b were long and short diameters of tumor mass in mm). […] Tumor weight was determined by analytic scale at termination (day 44/45). […]

Consider `FC(F)(F)Oc1ccc(/C=C/c2nc(COc3ccc(CCCCc4c[nH]nn4)cc3)co2)cc1` [Example 1.1, 4-[4-(4-{2-[(E)-2-(4-Trifluoromethoxy-phenyl)-vinyl]-oxazol-4-ylmethoxy}-phenyl)-butyl]-1H-[1,2,3]triazole], for which the IC50 in assay [1] was 128 nM; in assay [2] (Homo sapiens, 120 h), 200 to 1000 nM.

In the case of `Cn1nncc1CCCCc1ccc(OCc2coc(/C=C/c3ccc(OC(F)(F)F)cc3)n2)cc1` [Example 1.2, Methyl-5-[4-(4-{2-[(E)-2-(4-trifluoromethoxy-phenyl)-vinyl]-oxazol-4-ylmethoxy}-phenyl)-butyl]-1H-[1,2,3]triazole], in assay [3], the “Tumor Growth Inhibition (TGI)” value worked out at 50%. In assay [2], this compound returned an IC50 of 7 nM. `Cn1ncc(CCCCc2ccc(OCc3coc(/C=C/c4ccc(OC(F)(F)F)cc4)n3)cc2)n1` [Example 1.3, 2-Methyl-4-[4-(4-{2-[(E)-2-(4-trifluoromethoxy-phenyl)-vinyl]-oxazol-4-ylmethoxy}-phenyl)-butyl]-2H-[1,2,3]triazole]: the IC50 in assay [2] (Homo sapiens, 120 h) was in the range of 5 to 200 nM. Consider `Cn1cc(CCCCc2ccc(OCc3coc(/C=C/c4ccc(OC(F)(F)F)cc4)n3)cc2)nn1` [Example 1.4, 1-Methyl-4-[4-(4-{2-[(E)-2-(4-trifluoromethoxy-phenyl)-vinyl]-oxazol-4-ylmethoxy}-phenyl)-butyl]-1H-[1,2,3]triazole], for which the IC50 in assay [1] fell in the range of 5 to 250 nM; in assay [2] (Homo sapiens, 120 h), 5 to 200 nM. The corresponding values for `FC(F)(F)Oc1ccc(/C=C/c2nc(COc3ccc(CCCCc4nn[nH]n4)cc3)co2)cc1` [Example 2.1, 5-[4-(4-{2-[(E)-2-(4-Trifluoromethoxy-phenyl)-vinyl]-oxazol-4-ylmethoxy}-phenyl)-butyl]-2H-tetrazole] are 250 to 1500 nM and 200 to 1000 nM. In the same order, the values of `Cn1nnnc1CCCCc1ccc(OCc2coc(/C=C/c3ccc(OC(F)(F)F)cc3)n2)cc1` [Example 2.2, Methyl-5-[4-(4-{2-[(E)-2-(4-trifluoromethoxy-phenyl)-vinyl]-oxazol-4-ylmethoxy}-phenyl)-butyl]-1H-tetrazole] are 5 to 250 nM and 17 nM. Consider `Cn1nnc(CCCCc2ccc(OCc3coc(/C=C/c4ccc(OC(F)(F)F)cc4)n3)cc2)n1` [Example 2.3, Methyl-5-[4-(4-{2-[(E)-2-(4-trifluoromethoxy-phenyl)-vinyl]-oxazol-4-ylmethoxy}-phenyl)-butyl]-2H-tetrazole], for which, in assay [2] (Homo sapiens, 120 h), the IC50 lay in the range of 5 to 200 nM. Take `OCCn1nnnc1CCCCc1ccc(OCc2coc(C=Cc3ccc(OC(F)(F)F)cc3)n2)cc1` [Example 2.4, 2-{5-[4-(4-{2-[2-(4-Trifluoromethoxy-phenyl)-vinyl]-oxazol-4-ylmethoxy}-phenyl)-butyl]-tetrazol-1-yl}-ethanol]: the IC50 in assay [1] fell in the range of 250 to 1500 nM; in assay [2] (Homo sapiens, 120 h), 200 to 1000 nM.

For `OCCn1nnc(CCCCc2ccc(OCc3coc(C=Cc4ccc(OC(F)(F)F)cc4)n3)cc2)n1` [Example 2.5, 2-{5-[4-(4-{2-[2-(4-Trifluoromethoxy-phenyl)-vinyl]-oxazol-4-ylmethoxy}-phenyl)-butyl]-tetrazol-2-yl}-ethanol], the IC50 in assay [2] (Homo sapiens, 120 h) lay in the range of 5 to 200 nM. On to `Cc1cc(OCc2coc(/C=C/c3ccc(OC(F)(F)F)cc3)n2)ccc1CCCCc1cnn(C)n1` [Example 3.2, 2-Methyl-4-[4-(2-methyl-4-{2-[(E)-2-(4-trifluoromethoxy-phenyl)-vinyl]-oxazol-4-ylmethoxy}-phenyl)-butyl]-2H-[1,2,3]triazole], for which the “Tumor Growth Inhibition (TGI)” value in assay [3] came to 72%.
